SMILES strings stand for the structures.

Consider one compound from publication PMC11234416 (Advanced Science, 2024).

One assay has as its target T1, GSNOR (M. oryzae) (Pyricularia oryzae, UniProt G4N4N6).
T1 construct: gene MGG_06011
The assay can be described thus: biochemical.

For another assay, the target named is T2, rice GSNOR (Oryza sativa, UniProt Q0DWH1).
T2 construct: gene Os02g0815500
The assay can be described thus: surface plasmon resonance (OpenSPR). In kind it is binding. Background: Surface plasmon resonance follows binding to a sensor surface in real time, without labels.

T2 sequence (Q0DWH1 whole entry): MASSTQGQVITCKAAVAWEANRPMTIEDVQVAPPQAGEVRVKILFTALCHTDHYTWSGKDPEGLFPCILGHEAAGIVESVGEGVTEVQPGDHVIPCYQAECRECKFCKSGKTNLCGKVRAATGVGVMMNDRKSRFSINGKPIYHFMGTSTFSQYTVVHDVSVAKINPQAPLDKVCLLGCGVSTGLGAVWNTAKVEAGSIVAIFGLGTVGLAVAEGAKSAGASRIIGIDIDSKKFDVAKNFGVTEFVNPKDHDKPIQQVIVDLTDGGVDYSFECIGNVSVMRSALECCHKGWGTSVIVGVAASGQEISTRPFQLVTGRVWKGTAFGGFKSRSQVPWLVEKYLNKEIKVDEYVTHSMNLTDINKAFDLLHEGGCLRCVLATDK
T1 sequence (G4N4N6 1-381): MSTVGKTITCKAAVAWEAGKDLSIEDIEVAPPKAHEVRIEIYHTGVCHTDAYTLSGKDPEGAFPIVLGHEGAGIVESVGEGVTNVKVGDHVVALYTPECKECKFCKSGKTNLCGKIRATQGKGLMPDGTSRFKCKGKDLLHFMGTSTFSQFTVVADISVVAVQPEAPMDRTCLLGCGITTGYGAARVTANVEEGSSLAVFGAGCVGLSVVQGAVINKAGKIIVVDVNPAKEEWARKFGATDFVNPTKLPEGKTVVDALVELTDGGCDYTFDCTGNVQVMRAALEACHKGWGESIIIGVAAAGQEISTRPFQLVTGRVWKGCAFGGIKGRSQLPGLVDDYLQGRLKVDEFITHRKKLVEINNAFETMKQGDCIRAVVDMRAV

In general, Kd refers to a measure of binding affinity in units of concentration. A lower Kd goes with tighter binding. In the case of `Cc1cc(C(N)=O)ccc1-n1c(CCC(=O)O)ccc1-c1ccc(-n2ccnc2)cc1` [N6022], the equilibrium dissociation constant (Kd) at GSNOR (M. oryzae) worked out at 55.8 µM; at rice GSNOR, 288 µM.
